According to PubChem BioAssay (NCI):
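GI50 marks 50% less growth. At the TGI there is no net growth.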

What was measured:
Experiment in all cases: NCI tumour cell line growth inhibition, 384-well format
[1] = test system: 786-0 renal
[2] = test system: A498 renal
[3] = test system: A549 NSCLC
[4] = test system: ACHN renal
[5] = test system: BT-549 breast
[6] = test system: CCRF-CEM leukemia
[7] = test system: COLO 205 colon
[8] = test system: DU-145 prostate
[9] = test system: EKVX NSCLC
[10] = test system: HCC-2998 colon
[11] = test system: HCT-116 colon
[12] = test system: HCT-15 colon
[13] = test system: HL-60(TB) leukemia
[14] = test system: HOP-62 NSCLC
[15] = test system: HOP-92 NSCLC
[16] = test system: HS 578T breast
[17] = test system: HT29 colon
[18] = test system: IGROV1 ovarian
[19] = test system: K-562 leukemia
[20] = test system: KM12 colon
[21] = test system: LOX IMVI melanoma
[22] = test system: M14 melanoma
[23] = test system: MALME-3M melanoma
[24] = test system: MCF7 breast
[25] = test system: MDA-MB-231 breast
[26] = test system: MDA-MB-468 breast
[27] = test system: MOLT-4 leukemia
[28] = test system: NCI-H226 lung
[29] = test system: NCI-H23 lung
[30] = test system: NCI-H322M lung
[31] = test system: NCI-H460 NSCLC
[32] = test system: NCI-H522 lung
[33] = test system: NCI/ADR-RES ovarian
[34] = test system: OVCAR-3 ovarian
[35] = test system: OVCAR-4 ovarian
[36] = test system: OVCAR-5 ovarian
[37] = test system: OVCAR-8 ovarian
[38] = test system: PC-3 prostate
[39] = test system: RPMI-8226 leukemia
[40] = test system: RXF 393 renal
[41] = test system: SF-268 CNS
[42] = test system: SF-295 CNS
[43] = test system: SF-539 CNS
[44] = test system: SK-MEL-28 melanoma
[45] = test system: SK-MEL-5 melanoma
[46] = test system: SN12C renal
[47] = test system: SNB-19 CNS
[48] = test system: SNB-75 CNS
[49] = test system: SR leukemia
[50] = test system: SW-620 colon
[51] = test system: T-47D breast
[52] = test system: TK-10 renal
[53] = test system: U251 glioblastoma
[54] = test system: UO-31 renal

CC(C)(C)c1nc(-c2cccc(NS(=O)(=O)c3c(F)cccc3F)c2F)c(-c2ccnc(N)n2)s1
GI50 [1]: 43.8 µM | TGI [1]: > 100 µM | GI50 [2]: 60 µM | TGI [2]: > 94.6 µM | GI50 [3]: 20.2 µM | TGI [3]: 72.5 µM | GI50 [4]: 0.183 µM | TGI [4]: > 100 µM | GI50 [5]: 42.7 µM | TGI [5]: 70.1 µM | GI50 [6]: 14.4 µM | TGI [6]: > 44.1 µM | GI50 [7]: < 0.01 µM | GI50 [8]: 14.9 µM | TGI [8]: 41.6 µM | GI50 [9]: 26.6 µM | TGI [9]: 59.6 µM | GI50 [10]: 34.8 µM | TGI [10]: > 74.7 µM | GI50 [11]: 11.7 µM | TGI [11]: > 66.4 µM | GI50 [12]: 26 µM | TGI [12]: > 74.4 µM | GI50 [13]: 3.98 µM | TGI [13]: 27.3 µM | GI50 [14]: 55.5 µM | TGI [14]: > 100 µM | GI50 [15]: 50 µM | TGI [15]: > 94 µM | GI50 [16]: 33 µM | TGI [16]: > 75.9 µM | GI50 [17]: 0.0124 µM | TGI [17]: > 58.4 µM | GI50 [18]: 7.65 µM | TGI [18]: > 52.6 µM | GI50 [19]: 4.59 µM | TGI [19]: 20.7 µM | GI50 [20]: 27.7 µM | TGI [20]: > 70.9 µM | GI50 [21]: 1.28 µM | TGI [21]: > 63.8 µM | GI50 [22]: < 0.01 µM | TGI [22]: < 0.017 µM | GI50 [23]: < 0.01 µM | GI50 [24]: 25.3 µM | TGI [24]: 62.6 µM | GI50 [25]: 15 µM | TGI [25]: 37.4 µM | GI50 [26]: 28.6 µM | TGI [26]: 57.7 µM | GI50 [27]: 6.59 µM | TGI [27]: 24.3 µM | GI50 [28]: 22.1 µM | TGI [28]: 67 µM | GI50 [29]: 13.7 µM | TGI [29]: 52.3 µM | GI50 [30]: 23 µM | TGI [30]: 69.8 µM | GI50 [31]: 29.3 µM | TGI [31]: > 75.7 µM | GI50 [32]: 7.22 µM | TGI [32]: 41 µM | GI50 [33]: 22.6 µM | TGI [33]: 53.8 µM | GI50 [34]: 34.1 µM | TGI [34]: 60.8 µM | GI50 [35]: 24.9 µM | TGI [35]: 52 µM | GI50 [36]: 23.8 µM | TGI [36]: > 85.2 µM | GI50 [37]: 44.3 µM | TGI [37]: 89 µM | GI50 [38]: 48.9 µM | TGI [38]: > 93.6 µM | GI50 [39]: 5.83 µM | TGI [39]: 19.7 µM | GI50 [40]: 50.5 µM | TGI [40]: > 81.6 µM | GI50 [41]: 42.3 µM | TGI [41]: > 84.5 µM | GI50 [42]: 48.1 µM | TGI [42]: > 100 µM | GI50 [43]: 49.7 µM | TGI [43]: > 94.2 µM | GI50 [44]: < 0.01 µM | GI50 [45]: < 0.01 µM | TGI [45]: > 100 µM | GI50 [46]: 38.4 µM | TGI [46]: > 100 µM | GI50 [47]: 48.7 µM | TGI [47]: > 100 µM | GI50 [48]: > 62.8 µM | TGI [48]: > 81.3 µM | GI50 [49]: 6.62 µM | TGI [49]: 23.8 µM | GI50 [50]: 32.4 µM | TGI [50]: > 77.4 µM | GI50 [51]: 41.5 µM | TGI [51]: > 100 µM | GI50 [52]: 11.7 µM | TGI [52]: > 60.7 µM | GI50 [53]: 53.8 µM | TGI [53]: > 100 µM | GI50 [54]: 16.6 µM | TGI [54]: > 100 µM
